Here are results for 5 compounds from EP2608783B1, “USE OF GLYCYRRHETINIC ACID, GLYCYRRHIZIC ACID AND RELATED COMPOUNDS FOR PREVENTION AND/OR TREATMENT OF PULMONARY FIBROSIS” (Zhang, Lurong, priority 2010, dated 2012).

Data set [1] in a line: Long-term toxicity observation (activity, fur morphology, body weight). Format: in vivo. The text has this: No mouse died during GA treatment.
Data set [2] has as its system inflammatory mediators (IMs), including IL1a, TNFa, PF4 and VCAM-1. Put plainly: Inflammatory mediators in lung homogenates by ELISA, acute phase of IR-induced pneumonitis. As to conditions: 2.5 days after thoracic IR at 15 Gy, compared to vehicle-treated mice, p<0.05. It counts as in vivo, C57BL/6 fibrosis-prone mice. On the procedure:
Briefly, C57BL/6 fibrosis-prone mice received a single-dose of thoracic IR at 15 Gy with a dose rate of 1.9 Gy/min. Six hours after IR exposure, the mice were divided into the following treatment groups: 1) normal (received 0 Gy; no treatment); 2) vehicle-treated; 3) GA-treated (30-40 mg/kg/ q.o.d) (i.e. every other day) (the GA dosage used herein was derived from the effective dosage for humans (3-4 mg/kg), which is typically 6-10 times lower than that of mice); 4) dexamethasone-treated (Positive Control 1) (Dex, 3 mg/kg, i.m. or p.o. qod); 5) amifostine-treated (Positive Control 2) (Ami, 200 mg/kg/ i.v, 0.5 hr prior to irradiation); and 6) celebrex-treated (Positive Control 3) (30 mg/kg, po, qod).
The mice were sacrificed 2.5 days after IR exposure, and fresh lung tissue homogenates were prepared using lysis buffer mixed with protenase inhibitor cocktails. After protein concentration was adjusted to 1 mg/ml, the fresh lung homogenates were added to ELISA plates at a concentration of 100 µl/well. The levels of inflammatory mediators were measured by ELISA.

Data set [3] deals with IR-induced pulmonary fibrosis. Put plainly: Lung density by cone beam CT scan (CBCT) in IR-induced pulmonary fibrosis. It counts as in vivo, mice. To be noted: for abnormal increase in lung density: 7.5 months after IR exposure at 15 Gy (Figure 14), P<0.05. As to the method:
To assess effects of GA on lung density, cone beam CT scan (CBCT) of mouse lungs was performed. CBCT provides a complete 3D 650×650×428 scan (i.e. 428 slices) of the lungs with isotropic resolution at 270 µm (central slice shown in Fig. 11) in 30 seconds. The scanner achieves a CT density sensitivity of ∼[…], and thus, changes in lung density can be discerned. The CBCT imaging data were further analyzed using MATLAB software. The lungs were automatically segmented (Fig. 12A) and a 3D image was generated for each mouse lung (Fig. 12B). To reduce the effect of cardiac motion on the mean value of lung density, boundaries of the lungs were not used for analysis. A histogram of voxel intensity (pulmonary tissue density) of each mouse was created (Fig. 13).

For data set [4], the system named is IR-induced pneumonitis. Put plainly: Lung morphology: plasma exudation and inflammatory cell infiltration, acute phase of IR-induced pneumonitis. It counts as in vivo, C57BL/6 fibrosis-prone mice. To be noted: 2.5 days after thoracic IR at 15 Gy. On the procedure: Briefly, C57BL/6 fibrosis-prone mice received a single-dose of thoracic IR at 15 Gy with a dose rate of 1.9 Gy/min and were treated as described in Example 2. The mice were sacrificed 2.5 days after IR exposure, and lung tissues were harvested and analyzed for morphological changes.

In data set [5] the test system is IL1a, TNFa, lymphotactin and p-selectin. Put plainly: Inflammatory mediators, GA given 24 hours after IR exposure. Format: in vivo, mice. As to conditions: GA administered 24 hours after IR exposure; thoracic IR at 5, 10 and 15 Gy. As to the method:
The administration of GA 24 hours after IR exposure can effectively block the surge in inflammatory responses.

In data set [6] the test system is IR-induced pneumonitis. Put plainly: Sub-acute phase of IR-induced pneumonitis: lung tissue and bronchoalveolar lavage fluid (BALF) assays. Format: in vivo, C57BL/6 fibrosis-prone mice. On the procedure: Briefly, C57BL/6 fibrosis-prone mice received a thoracic IR and were treated as described in Example 2. The mice were sacrificed 17 days after IR exposure, and lung tissues were harvested. Bronchoalveolar lavage fluid (BALF) assays were performed.

Data set [7] has as its system IR-induced pulmonary fibrosis. Nature of the data set: Lung compliance (plethysmograph pressure-volume measurements). Format: in vivo, mice. To be noted: 6.5 months after IR exposure at 15 Gy; P<0.05. As to the method:
To assess the effects of GA on lung compliance, mice were anesthetized and their trachea were surgically exposed and incised. An 18-gauge, 1 cm stainless steel tube was inserted into the trachea and secured with surgical sutures. The respiratory rate and tidal volume of the mice were measured by a Harvard rodent ventilator. The average respiratory rate was 150 breaths per minute and the tidal volume was adjusted according to the weight (0.01 ml per gram body weight). The mice were then placed in a plethysmograph for pressure-volume measurements.

Data set [8] relates to IR-induced pulmonary fibrosis. Put plainly: Respiratory rate (rodent ventilator with pressure plethysmograph) in IR-induced pulmonary fibrosis. Format: in vivo, mice. To be noted: GA 30-40 mg/kg q.o.d. or twice/week for 3 months; 7 months after IR at 15 Gy, 5 months after IR at 18 Gy; P<0.05. As to the method: Mice exposed to thoracic IR develops pulmonary fibrosis 6 months after IR exposure at 18 Gy, 8 months after IR exposure at 15 Gy, and 10 months after IR exposure at 12.5 Gy. To access the treatment effects of GA on lung fibrosis and lung function, the respiratory rate, lung density, and lung compliance of the mice were determined. To assess improvement on respiratory function, mice exposed to thoracic IR at 15 Gy were treated with GA (30-40 mg/kg) q.o.d. or twice/week for 3 months. Mouse respiratory rate was measured using a Harvard rodent ventilator connected to a pressure plethysmograph.

The next data set concerns hydroxyproline; TGFβ. Nature of the data set: Hydroxyproline and TGFβ levels in lungs. It counts as in vivo, mice. The text has this: The reduction of collagen deposition was further analyzed by measuring the levels of hydroxyproline, a key component of collagen.
For another data set, the system named is growth hormone (GH). Put plainly: Plasma growth hormone by ELISA during long-term treatment. On the procedure: In addition, plasma levels of growth hormone (GH) were measured using ELISA at Weeks 6, 7, and 10 after GA treatments.
The next data set relates to SP-D and IL1a. Nature of the data set: Plasma levels of SP-D and IL1a, acute phase of IR-induced pneumonitis. Format: in vivo, C57BL/6 fibrosis-prone mice. As to conditions: 2.5 days after thoracic IR at 15 Gy; P<0.05. As to the method: IR damages lung epithelium and endothelium cells, and causes dysfunction of tight junction, increased cellular permeability, and the loss of integrity of the alveolar-capillary barrier. As a result, SP-D and ILla abnormally enter into the blood from inflamed pulmonary tissue, leading to elevated plasma levels of SP-D and IL1a. In this Example, C57BL/6 fibrosis-prone mice received a single-dose of thoracic IR at 15 Gy with a dose rate of 1.9 Gy/min and were treated as described in Example 2. The mice were sacrificed 2.5 days after IR exposure, and plasma levels of SP-D and IL1a were measured.

In a further data set the test system is IR-induced fibrosis. Nature of the data set: Lung histology (H&E stain, trichrome blue collagen stain) in IR-induced fibrosis. To be noted: GA 40 mg/kg/q.o.d. for 3 months; 7 months after IR exposure at 15 Gy. Format: in vivo, mice. On the procedure:
Briefly, mice treated with GA (40 mg/kg/q.o.d.) for 3 months were sacrificed 7 months after IR exposure at 15 Gy, and lung tissue specimens were stained using hematoxylin and eosin (H&E) stain. […] To assess whether GA reduces abnormal collagen deposition in lungs, lung tissue specimen was stained with collagen-binding trichrome blue dye.

Data set [9] relates to IR-induced pneumonitis. Put plainly: Clinical case: GLA tablets in a lung cancer patient receiving 2nd IR treatment. It counts as in vivo. To be noted: one patient. As to the method:
In collaboration with radiation oncologists at the First Affiliated Hospital of Fujian Medical School in China, GLA tablets (produced by Minophagen Co. in Japan and available in pharmacies in China) were administered to a patient who received their 2nd IR treatment for lung cancer. […] To control the progression of pneumonitis, they received dexamethasone treatment. Due to tumor re-growth 9 months after their 1st IR treatment, they received a 2nd IR treatment with warnings that IR may worsen pneumonitis. In order to mitigate IR-induced lung injury, GLA was administered at a dose of 150 mg per day (equivalent to GA about 85 mg per day) starting from the date of 2nd IR treatment for 3 months. The result was unexpectedly surprising.

The test system of data set [10] is ACTH (adrenocorticotropic hormone). As to conditions: in vivo. On the procedure: The chemical structure of GA is similar to that of cortisol. Thus, this Example investigates whether the long-term use of GA would affect the production of cortisol and cause side effects. The plasma levels of ACTH (adrenocorticotropic hormone), a cortisol-releasing hormone, were measured using ELISA at Weeks 6, 7, and 10 after GA-treatments (40 mg/kg, qod, p.o).

The next data set has as its system pulmonary fibrosis. Nature of the data set: Inventors' observation on dexamethasone in pulmonary fibrosis. Format: in vivo. To be noted: compared to the non-treated controls.
The mark [11] stands for this setting: 17 days after IR exposure at 15 Gy, P<0.05.
Setting [12] is: 17 days after IR exposure, P<0.05.

Take `Cc1ccc(-c2cc(C(F)(F)F)nn2-c2ccc(S(N)(=O)=O)cc2)cc1` [celebrex, reference compound]: in data set [1] (7.5 months post IR exposure at 15 Gy, vehicle-treated mice lost 6-7 grams), the “loss of body weight (BW)” value is reported as “less severe loss of BW”. Besides, the “levels of inflammatory mediators (IMs), including IL1a, TNFa, PF4 and VCAM-1” value (“levels of inflammatory mediators (IMs)” below) in data set [2] is “extent of inhibition by GA was comparable”. Moreover, the “abnormal increase in lung density” value in data set [3] was “reduction in lung density by GA is more potent”.

`NCCCNCCSP(=O)(O)O` [amifostine]: in data set [2], the “levels of inflammatory mediators (IMs)” value is on record as “extent of inhibition by GA was comparable”.

In the case of `CC1(C)[C@@H](O)CC[C@]2(C)[C@H]3C(=O)C=C4[C@@H]5C[C@@](C)(C(=O)O)CC[C@]5(C)CC[C@@]4(C)[C@]3(C)CC[C@@H]12` [GA, glycyrrhetinic acid], the “plasma exudation and inflammatory cell infiltration into the interstitial space” value in the data set with IR-induced pneumonitis [4] was “potently suppressed”. In addition, the death during treatment entry in [1] (long-term use) is given as “No mouse died”. In addition, in data set [1] (mouse, in vivo), the “side effects of long-term use” value is “little side effects”. Moreover, in [5], the “levels of key inflammatory mediators including IL1a, TNFa, lymphotactin and p-selectin” value is reported as “potently reduced”. In addition, the “levels of inflammatory mediators (IMs)” value in [2] is reported as “effectively reduced”. Besides, the “abnormal increase in lung density” value in data set [3] is listed as “significantly reduced”. Further, in data set [3] (lung density, 1 year post IR exposure at 18 Gy), the “Mean Density (HU)” value is -458 HU. The “infiltration of neutrophils into the interstitial fluid” value in the data set with IR-induced pneumonitis [6] (17 days after IR exposure at 15 Gy) is “suppression”. In addition, in the data set on IR-induced pneumonitis [6] (setting [11]), the “level of neutrophils infiltrated into the bronchoalveolar lavage fluid” value is “reduced” and the “myeloperoxidase (MPO) activity in (BALF)” value was “reduced”. Moreover, in the data set with IR-induced pneumonitis [6] (setting [12]), the level of lymphotactin result is listed as “reduced” and the level of p-selectin entry was “reduced”. Further, the lung compliance entry in data set [7] is “potently, and mostly effectively, enhanced”. For the same compound, the respiratory rate result in data set [8] is recorded as “effectively reduced”. In addition, the “hydroxyproline levels in the lungs” value in the data set on hydroxyproline; TGFβ (compared to IR + vehicle control, P<0.05) is given as “reduced”. The “level of TGFβ” value in the data set on hydroxyproline; TGFβ (pro-fibrotic factor, Figure 18B) was “reduced”. Moreover, in the data set on growth hormone (GH) (in vivo), the “plasma GH level” value is listed as “increased”. In the data set with SP-D and IL1a, the “plasma levels of IL1a” value is “effectively reduced” and the “plasma levels of SP-D” value is “effectively reduced”. For the same compound, in the data set on IR-induced fibrosis, the “collagen deposition caused by IR exposure (trichrome blue dye)” value is on record as “reduces” and the “lung morphology (H&E stain)” value is recorded as “near-normal morphology”.

Turning to `CC1(C)[C@@H](O[C@H]2O[C@H](C(=O)O)[C@@H](O)[C@H](O)[C@H]2O[C@@H]2O[C@H](C(=O)O)[C@@H](O)[C@H](O)[C@H]2O)CC[C@]2(C)[C@H]3C(=O)C=C4[C@@H]5C[C@@](C)(C(=O)O)CC[C@]5(C)CC[C@@]4(C)[C@]3(C)CC[C@@H]12` [GLA, glycyrrhizic acid], the “symptoms of pneumonitis or fibrosis” value in the data set with IR-induced pneumonitis [9] (150 mg per day for 3 months from date of 2nd IR treatment) is recorded as “did not exhibit any symptom of pneumonitis or fibrosis”. Besides, the “lung density (CT)” value in the data set on IR-induced pneumonitis [9] (CT results of 1st versus 2nd IR treatment (Figure 20)) is on record as “significantly reduced”.

For the compound `C[C@@H]1C[C@H]2[C@@H]3CCC4=CC(=O)C=C[C@]4(C)[C@@]3(F)[C@@H](O)C[C@]2(C)[C@@]1(O)C(=O)CO` [dexamethasone], the “plasma GH level” value in the data set with growth hormone (GH) (measured at Weeks 6, 7, and 10) was “increased”. The “reduction in ACTH levels” value in data set [10] is reported as 10-50 fold. Besides, the “effect on pulmonary fibrosis” value in the data set on pulmonary fibrosis is given as “worsening of pulmonary fibrosis”.
